Results published in patent EP4603105A1, “PHARMACEUTICAL COMPOSITION CONTAINING CYCLIC COMPOUND HAVING SELECTIVE KRAS INHIBITORY EFFECT AGAINST HRAS AND NRAS” (CHUGAI SEIYAKU KABUSHIKI KAISHA, priority 2022, dated 2024).

Tests used:
HRAS wild-type protein = HRAS wild-type protein (Homo sapiens, UniProt P01112); test: Binding to HRAS by surface plasmon resonance (SPR), KD and KD ratio to KRAS; conditions: ratio of the KD value with respect to HRAS wild-type protein to the KD value with respect to KRAS
Sequence of HRAS wild-type protein (P01112 whole entry): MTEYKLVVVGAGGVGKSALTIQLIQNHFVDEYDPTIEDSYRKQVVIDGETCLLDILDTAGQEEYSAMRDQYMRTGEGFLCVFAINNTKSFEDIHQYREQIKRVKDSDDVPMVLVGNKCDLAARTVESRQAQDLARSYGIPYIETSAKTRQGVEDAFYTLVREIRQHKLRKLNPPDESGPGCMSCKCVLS
Summary of the method: (§1)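 Biotinylated GDP-bound RAS was captured at about 100–300 RU. Running buffer: HBS pH 7.4, 10 mM MgCl2, 10 µM GDP, 1 mM DTT, 0.01% Tween 20, 4% DMSO.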

[1] = system: human lung cancer strain NCI-H441; format: cell-based
Summary of the method: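 Step one: dispense the test compound in serial DMSO dilutions. Step three: add the reagent and measure […].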

[2] = biological target: GDP-bound NRAS wild-type protein (Homo sapiens, UniProt P01111); test: Binding to NRAS by surface plasmon resonance (SPR), KD and KD ratio to KRAS; conditions: ratio of the KD value with respect to GDP-bound NRAS wild-type protein to the KD value with respect to KRAS
Sequence of GDP-bound NRAS wild-type protein (P01111 whole entry): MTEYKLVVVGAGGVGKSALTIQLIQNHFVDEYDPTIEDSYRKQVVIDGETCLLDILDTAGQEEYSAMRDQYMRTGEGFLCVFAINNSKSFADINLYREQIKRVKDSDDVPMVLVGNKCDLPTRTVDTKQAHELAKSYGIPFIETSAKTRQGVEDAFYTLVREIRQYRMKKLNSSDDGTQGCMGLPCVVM
Summary of the method: as §1

Row | SMILES | HRAS /KRAS (HRAS wild-type protein) | IC50 [1] [nM] | NRAS /KRAS [2]
1 | CCC[C@H]1C(=O)N[C@@H]([C@@H](C)CC)C(=O)N2CCC[C@H]2C(=O)N(C)[C@H]2C/C=C\CCN(C2=O)[C@@H](Cc2ccc(C)cc2)C(=O)N(C)CC(=O)N[C@@H](CCc2ccc(C(F)(F)F)c(OC)c2)C(=O)N2C[C@H](OCC)C[C@H]2C(=O)N(C)C2(CCC2)C(=O)N(C)[C@@H](C(CC)CC)C(=O)N(C)[C@H](C(=O)N(C)C)CC(=O)N1C [PP2329] | A (a compound having 10 or more and less than 20 is denoted as A) | 6.5 | A (a compound having 10 or more and less than 20 is denoted as A)
2 | CCCOC[C@H]1C(=O)N[C@@H]([C@@H](C)CC)C(=O)N(C2CC2)CC(=O)N(C)[C@H]2C/C=C\CCN(C2=O)[C@@H](Cc2ccc(C)cc2)C(=O)N(C)CC(=O)N[C@@H](CCc2ccc(C(F)(F)F)c(OC)c2)C(=O)N2C[C@H](OCC)C[C@H]2C(=O)N(C)C2(CCC2)C(=O)N(C)[C@@H](C2CCCC2)C(=O)N(C)[C@H](C(=O)N(C)C)CC(=O)N1C [PP2330] | A (a compound having 10 or more and less than 20 is denoted as A) | 5.5 | A (a compound having 10 or more and less than 20 is denoted as A)
3 | CCCOC[C@H]1C(=O)N[C@@H]([C@@H](C)CC)C(=O)N2CCC[C@H]2C(=O)N(C)[C@H]2C/C=C\CCN(C2=O)[C@@H](Cc2ccc(C)cc2)C(=O)N(C)CC(=O)N[C@@H](CCc2ccc(C(F)(F)F)c(OC)c2)C(=O)N2C[C@H](OCC)C[C@H]2C(=O)N(C)C2(CCC2)C(=O)N(C)[C@@H](C(CC)CC)C(=O)N(C)[C@H](C(=O)N(C)C)CC(=O)N1C [PP2331] | A (a compound having 10 or more and less than 20 is denoted as A) | 11.8 | AA (a compound having 20 or more is denoted as AA)
4 | CCC[C@H]1C(=O)N[C@@H]([C@@H](C)CC)C(=O)N2CCC[C@H]2C(=O)N(C)[C@H]2C/C=C\CCN(C2=O)[C@@H](Cc2ccc(C)cc2)C(=O)N(C)CC(=O)N[C@@H](CCc2ccc(C(F)(F)F)c(OC)c2)C(=O)N2C[C@H](OCC)C[C@H]2C(=O)N(C)C2(CCC2)C(=O)N(C)[C@@H](C2CCCC2)C(=O)N(C)[C@H](C(=O)N(C)C)CC(=O)N1C [PP2332] | B (a compound having 3 or more and less than 10 is denoted as B) | 3.8 | A (a compound having 10 or more and less than 20 is denoted as A)
5 | CCCOC[C@H]1C(=O)N[C@@H]([C@@H](C)CC)C(=O)N2CCC[C@H]2C(=O)N(C)[C@H]2C/C=C\CCN(C2=O)[C@@H](Cc2ccc(C)cc2)C(=O)N(C)CC(=O)N[C@@H](CCc2ccc(C(F)(F)F)c(OC)c2)C(=O)N2C[C@H](OCC)C[C@H]2C(=O)N(C)C2(CCC2)C(=O)N(C)[C@@H](C2CCCC2)C(=O)N(C)[C@H](C(=O)N(C)C)CC(=O)N1C [PP2334] | B (a compound having 3 or more and less than 10 is denoted as B) | 5.7 | A (a compound having 10 or more and less than 20 is denoted as A)
6 | CCO[C@@H]1C[C@H]2C(=O)N(C)C3(CCC3)C(=O)N(C)[C@@H](C(CC)CC)C(=O)N(C)[C@H](C(=O)N(C)C)CC(=O)N(C)[C@@H](COC)C(=O)N[C@@H]([C@@H](C)CC)C(=O)N(C)CC(=O)N(C)[C@H]3C/C=C\CCN(C3=O)[C@@H](CC3CCCCC3)C(=O)N(C)CC(=O)N[C@@H](CCc3ccc(C(F)(F)F)c(OC)c3)C(=O)N2C1 [PP2335] | A (a compound having 10 or more and less than 20 is denoted as A) | 64.2 | A (a compound having 10 or more and less than 20 is denoted as A)
7 | CCC[C@H]1C(=O)N[C@@H]([C@@H](C)CC)C(=O)N(C)CC(=O)N(C)[C@H]2C/C=C\CCN(C2=O)[C@@H](CC2CCCCC2)C(=O)N(C)CC(=O)N[C@@H](CCc2ccc(C(F)(F)F)c(OC)c2)C(=O)N2C[C@H](OCC)C[C@H]2C(=O)N(C)C2(CCC2)C(=O)N(C)[C@@H](C2CCCC2)C(=O)N(C)[C@H](C(=O)N(C)C)CC(=O)N1C [PP2336] | A (a compound having 10 or more and less than 20 is denoted as A) | 16.3 | A (a compound having 10 or more and less than 20 is denoted as A)
8 | CCO[C@@H]1C[C@H]2C(=O)N(C)C3(CCC3)C(=O)N(C)[C@@H](C(CC)CC)C(=O)N(C)[C@H](C(=O)N(C)C)CC(=O)N(C)[C@@H](COC)C(=O)N[C@@H]([C@@H](C)CC)C(=O)N(C3CC3)CC(=O)N(C)[C@H]3C/C=C\CCN(C3=O)[C@@H](CC3CCCCC3)C(=O)N(C)CC(=O)N[C@@H](CCc3ccc(C(F)(F)F)c(OC)c3)C(=O)N2C1 [PP2339] | A (a compound having 10 or more and less than 20 is denoted as A) | 59.3 | A (a compound having 10 or more and less than 20 is denoted as A)
9 | CCC[C@H]1C(=O)N[C@@H]([C@@H](C)CC)C(=O)N2CCC[C@H]2C(=O)N(C)[C@H]2C/C=C\CCN(C2=O)[C@@H](CC2CCCCC2)C(=O)N(C)CC(=O)N[C@@H](CCc2ccc(C(F)(F)F)c(OC)c2)C(=O)N2C[C@H](OCC)C[C@H]2C(=O)N(C)C2(CCC2)C(=O)N(C)[C@@H](C(CC)CC)C(=O)N(C)[C@H](C(=O)N(C)C)CC(=O)N1C [PP2341] | A (a compound having 10 or more and less than 20 is denoted as A) | 133 | A (a compound having 10 or more and less than 20 is denoted as A)
10 | CCC[C@H]1C(=O)N[C@@H]([C@@H](C)CC)C(=O)N2CCC[C@H]2C(=O)N(C)[C@H]2C/C=C\CCN(C2=O)[C@@H](CC2CCCCC2)C(=O)N(C)CC(=O)N[C@@H](CCc2ccc(C(F)(F)F)c(OC)c2)C(=O)N2C[C@H](OCC)C[C@H]2C(=O)N(C)C2(CCC2)C(=O)N(C)[C@@H](C2CCCC2)C(=O)N(C)[C@H](C(=O)N(C)C)CC(=O)N1C [PP2344] | A (a compound having 10 or more and less than 20 is denoted as A) | 44.9 | A (a compound having 10 or more and less than 20 is denoted as A)
11 | CCC[C@H]1C(=O)N[C@@H]([C@@H](C)CC)C(=O)N(C)CC(=O)N(C)[C@H]2C/C=C\CCN(C2=O)[C@@H](CC2CCC(F)(F)CC2)C(=O)N(C)CC(=O)N[C@@H](CCc2ccc(C(F)(F)F)c(OC)c2)C(=O)N2C[C@H](OCC)C[C@H]2C(=O)N(C)C2(CCC2)C(=O)N(C)[C@@H](C(CC)CC)C(=O)N(C)[C@H](C(=O)N(C)C)CC(=O)N1C [PP2345] | A (a compound having 10 or more and less than 20 is denoted as A) | 77.2 | A (a compound having 10 or more and less than 20 is denoted as A)
12 | CCOC[C@H]1C(=O)N[C@@H]([C@@H](C)CC)C(=O)N(C)CC(=O)N(C)[C@H]2C/C=C\CCN(C2=O)[C@@H](CC2CCC(F)(F)CC2)C(=O)N(C)CC(=O)N[C@@H](CCc2ccc(C(F)(F)F)c(OC)c2)C(=O)N2C[C@H](OCC)C[C@H]2C(=O)N(C)C2(CCC2)C(=O)N(C)[C@@H](C(CC)CC)C(=O)N(C)[C@H](C(=O)N(C)C)CC(=O)N1C [PP2347] | A (a compound having 10 or more and less than 20 is denoted as A) | 143 | A (a compound having 10 or more and less than 20 is denoted as A)
13 | CCC[C@H]1C(=O)N[C@@H]([C@@H](C)CC)C(=O)N(C)CC(=O)N(C)[C@H]2C/C=C\CCN(C2=O)[C@@H](CC2CCC(F)(F)CC2)C(=O)N(C)CC(=O)N[C@@H](CCc2ccc(C(F)(F)F)c(OC)c2)C(=O)N2C[C@H](OCC)C[C@H]2C(=O)N(C)C2(CCC2)C(=O)N(C)[C@@H](C2CCCC2)C(=O)N(C)[C@H](C(=O)N(C)C)CC(=O)N1C [PP2348] | A (a compound having 10 or more and less than 20 is denoted as A) | 52.7 | A (a compound having 10 or more and less than 20 is denoted as A)
14 | CCC[C@H]1C(=O)N[C@@H]([C@@H](C)CC)C(=O)N(C2CC2)CC(=O)N(C)[C@H]2C/C=C\CCN(C2=O)[C@@H](CC2CCC(F)(F)CC2)C(=O)N(C)CC(=O)N[C@@H](CCc2ccc(C(F)(F)F)c(OC)c2)C(=O)N2C[C@H](OCC)C[C@H]2C(=O)N(C)C2(CCC2)C(=O)N(C)[C@@H](C(CC)CC)C(=O)N(C)[C@H](C(=O)N(C)C)CC(=O)N1C [PP2349] | A (a compound having 10 or more and less than 20 is denoted as A) | 73.2 | A (a compound having 10 or more and less than 20 is denoted as A)
15 | CCCOC[C@H]1C(=O)N[C@@H]([C@@H](C)CC)C(=O)N(C)CC(=O)N(C)[C@H]2C/C=C\CCN(C2=O)[C@@H](CC2CCC(F)(F)CC2)C(=O)N(C)CC(=O)N[C@@H](CCc2ccc(C(F)(F)F)c(OC)c2)C(=O)N2C[C@H](OCC)C[C@H]2C(=O)N(C)C2(CCC2)C(=O)N(C)[C@@H](C2CCCC2)C(=O)N(C)[C@H](C(=O)N(C)C)CC(=O)N1C [PP2350] | A (a compound having 10 or more and less than 20 is denoted as A) | 60.3 | A (a compound having 10 or more and less than 20 is denoted as A)
16 | CCC[C@H]1C(=O)N[C@@H]([C@@H](C)CC)C(=O)N(C2CC2)CC(=O)N(C)[C@H]2C/C=C\CCN(C2=O)[C@@H](CC2CCC(F)(F)CC2)C(=O)N(C)CC(=O)N[C@@H](CCc2ccc(C(F)(F)F)c(OC)c2)C(=O)N2C[C@H](OCC)C[C@H]2C(=O)N(C)C2(CCC2)C(=O)N(C)[C@@H](C2CCCC2)C(=O)N(C)[C@H](C(=O)N(C)C)CC(=O)N1C [PP2352] | A (a compound having 10 or more and less than 20 is denoted as A) | 15.6 | A (a compound having 10 or more and less than 20 is denoted as A)
